Test results published in patent US20230086702A1, “SUBSTITUTED 2-AMINO-PYRAZOLYL-[1,2,4]TRIAZOLO[1,5A]PYRIDINE DERIVATIVES AND USE THEREOF” (The Johns Hopkins University, priority 2019, published 2023).

How the values were obtained:
[1] = target: T1, DLK (Homo sapiens, UniProt Q12852); experiment: DLK biochemical assay (TR-FRET, MKK7 phosphorylation)
T1 construct: 10 nM DLK, catalytic domain, Carna Biosiences; purchased Carna Biosciences ('Carna Biosiences' [sic])
T1 sequence (Q12852 125-366 limits assumed): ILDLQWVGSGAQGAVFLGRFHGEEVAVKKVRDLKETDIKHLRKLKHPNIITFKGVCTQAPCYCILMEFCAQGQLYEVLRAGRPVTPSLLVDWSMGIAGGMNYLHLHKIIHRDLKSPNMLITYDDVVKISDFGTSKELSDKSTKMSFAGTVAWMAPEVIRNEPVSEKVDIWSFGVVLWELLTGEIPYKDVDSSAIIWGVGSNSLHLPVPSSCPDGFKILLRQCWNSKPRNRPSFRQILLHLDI
Method in brief: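 TR-FRET read-out (665/Eu ratio) of MKK7 T275/S277 phosphorylation, with inhibition lowering the signal. Final conditions: 10 nM DLK catalytic domain, 15 nM MKK7, 60 μM ATP, 90 min at RT. Detection incubation 16 h at 37° C in 1536-well or 4° C in 384-well format.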

[2] = target: T2, LZK (Homo sapiens, UniProt O43283); experiment: LZK biochemical assay (TR-FRET, MKK7 phosphorylation)
T2 construct: 10 nM LZK, catalytic domain, Carna Biosiences in assay buffer; purchased Carna Biosciences ('Carna Biosiences' [sic])
T2 sequence (O43283 168-409 limits assumed): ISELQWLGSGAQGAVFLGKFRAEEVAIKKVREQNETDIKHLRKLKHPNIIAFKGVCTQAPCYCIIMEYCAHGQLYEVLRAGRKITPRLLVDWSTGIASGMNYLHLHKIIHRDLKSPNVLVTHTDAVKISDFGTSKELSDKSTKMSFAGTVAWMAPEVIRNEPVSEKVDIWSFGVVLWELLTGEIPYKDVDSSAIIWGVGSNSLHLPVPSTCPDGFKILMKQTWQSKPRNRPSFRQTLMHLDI
Method in brief: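 Read-out is HTRF: Eu-labelled anti-phospho-MKK7 (T275/S277) and XL665 anti-His, incubated 16 h at 32 °C, with a drop in signal marking inhibition. Reaction beforehand: 10 nM LZK kinase domain, 15 nM His-MKK7, 15 µM ATP (final) for 90 min at room temperature, pH 7.5.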

Row | IC50 [1] | IC50 [2] | SMILES
1 | 11 nM | 7.9 nM | CC(C)C(c1ccc(C(F)(F)F)nc1)n1cc(-c2cc(-c3ccc(C4CC4)nc3)n3nc(N)nc3c2)cn1 (single isomer, unassigned) [II-60, 5-(6-Cyclopropylpyridin-3-yl)-7-(1-{2-methyl-1-[6-(trifluoromethyl)pyridin-3-yl]propyl}-1H-pyrazol-4-yl)[1,2,4]triazolo[1,5-a]pyridin-2-amine]
2 | 440 nM | 220 nM | CCC(c1ccc(C(F)F)nc1)n1cc(-c2cc(-c3ccc(C(F)(F)F)nc3)n3nc(N)nc3c2)cn1 (single isomer, unassigned) [II-62, 7-(1-{1-[6-(Difluoromethyl)pyridin-3-yl]propyl}-1H-pyrazol-4-yl)-5-[6-(trifluoromethyl)pyridin-3-yl][1,2,4]triazolo[1,5-a]pyridin-2-amine]
3 | 97 nM | 51 nM | CCC(c1ccc(C(F)F)nc1)n1cc(-c2cc(-c3ccc(C(F)(F)F)nc3)n3nc(N)nc3c2)cn1 (single isomer, unassigned) [II-63, 7-(1-{1-[6-(Difluoromethyl)pyridin-3-yl]propyl}-1H-pyrazol-4-yl)-5-[6-(trifluoromethyl)pyridin-3-yl][1,2,4]triazolo[1,5-a]pyridin-2-amine]
4 | 440 nM | 210 nM | CC(C)C(c1ccc(C(F)F)nc1)n1cc(-c2cc(-c3ccc(C(F)(F)F)nc3)n3nc(N)nc3c2)cn1 (single isomer, unassigned) [II-65, 7-(1-{1-[6-(Difluoromethyl)pyridin-3-yl]-2-methylpropyl}-1H-pyrazol-4-yl)-5-[6-(trifluoromethyl)pyridin-3-yl][1,2,4]triazolo[1,5-a]pyridin-2-amine]
5 | 45 nM | 43 nM | CC(C)C(c1ccc(C(F)F)nc1)n1cc(-c2cc(-c3ccc(C(F)(F)F)nc3)n3nc(N)nc3c2)cn1 (single isomer, unassigned) [II-66, 7-(1-{1-[6-(Difluoromethyl)pyridin-3-yl]-2-methylpropyl}-1H-pyrazol-4-yl)-5-[6-(trifluoromethyl)pyridin-3-yl][1,2,4]triazolo[1,5-a]pyridin-2-amine]
6 | 36 nM | 86 nM | CCC(c1ccc(C(F)F)nc1)n1cc(-c2cc(-c3ccc(C4CC4)nc3)n3nc(N)nc3c2)cn1 (single isomer, unassigned) [II-68, 5-(6-Cyclopropylpyridin-3-yl)-7-(1-{1-[6-(difluoromethyl)pyridin-3-yl]propyl}-1H-pyrazol-4-yl)[1,2,4]triazolo[1,5-a]pyridin-2-amine]
7 | 4.8 nM | 9.4 nM | CCC(c1ccc(C(F)F)nc1)n1cc(-c2cc(-c3ccc(C4CC4)nc3)n3nc(N)nc3c2)cn1 (single isomer, unassigned) [II-69, 5-(6-Cyclopropylpyridin-3-yl)-7-(1-{1-[6-(difluoromethyl)pyridin-3-yl]propyl}-1H-pyrazol-4-yl)[1,2,4]triazolo[1,5-a]pyridin-2-amine]
8 | 160 nM | 74 nM | CC(C)C(c1ccc(C(F)(F)F)nc1)n1cc(-c2cc(-c3ccc(C(F)F)nc3)n3nc(N)nc3c2)cn1 (single isomer, unassigned) [II-71, 5-[6-(Difluoromethyl)pyridin-3-yl]-7-(1-{2-methyl-1-[6-(trifluoromethyl)pyridin-3-yl]propyl}-1H-pyrazol-4-yl)[1,2,4]triazolo[1,5-a]pyridin-2-amine]

Further lines, the molecule ahead of its results:

Row | SMILES | IC50 [1] | IC50 [2]
9 | CC(C)C(c1ccc(C(F)(F)F)nc1)n1cc(-c2cc(-c3ccc(C(F)(F)F)nc3)c3nc(N)nn3c2)cn1 (single isomer, unassigned) [II-42, 6-(1-{2-Methyl-1-[6-(trifluoromethyl)pyridin-3-yl]propyl}-1H-pyrazol-4-yl)-8-[6-(trifluoromethyl)pyridin-3-yl][1,2,4]triazolo[1,5-a]pyridin-2-amine] | 18 nM | 52 nM
10 | CC(C)C(c1ccc(C(F)(F)F)nc1)n1cc(-c2cc(-c3ccc(C4CC4)nc3)c3nc(N)nn3c2)cn1 (single isomer, unassigned) [II-44] | 60 nM | 100 nM
11 | CC(C)C(c1ccc(C(F)(F)F)nc1)n1cc(-c2cc(-c3ccc(C4CC4)nc3)c3nc(N)nn3c2)cn1 (single isomer, unassigned) [II-45, 8-(6-Cyclopropylpyridin-3-yl)-6-(1-{2-methyl-1-[6-(trifluoromethyl)pyridin-3-yl]propyl}-1H-pyrazol-4-yl)[1,2,4]triazolo[1,5-a]pyridin-2-amine] | 9.5 nM | 10 nM
12 | CC(C)C(c1ccc(C(F)F)nc1)n1cc(-c2cc(-c3ccc(OC(F)F)nc3)n3nc(N)nc3c2)cn1 (single isomer, unassigned) [II-50, 5-[6-(Difluoromethoxy)pyridin-3-yl]-7-(1-{1-[6-(difluoromethyl)pyridin-3-yl]-2-methylpropyl}-1H-pyrazol-4-yl)[1,2,4]triazolo[1,5-a]pyridin-2-amine] | 280 nM | 270 nM
13 | CC(C)C(c1ccc(C(F)F)nc1)n1cc(-c2cc(-c3ccc(OC(F)F)nc3)n3nc(N)nc3c2)cn1 (single isomer, unassigned) [II-51, 5-[6-(Difluoromethoxy)pyridin-3-yl]-7-(1-{1-[6-(difluoromethyl)pyridin-3-yl]-2-methylpropyl}-1H-pyrazol-4-yl)[1,2,4]triazolo[1,5-a]pyridin-2-amine] | 13 nM | 25 nM
14 | CC(C)C(c1ccc(C(F)F)nc1)n1cc(-c2cc(-c3ccc(C4CC4)nc3)n3nc(N)nc3c2)cn1 (single isomer, unassigned) [II-53, 5-(6-Cyclopropylpyridin-3-yl)-7-(1-{1-[6-(difluoromethyl)pyridin-3-yl]-2-methylpropyl}-1H-pyrazol-4-yl)[1,2,4]triazolo[1,5-a]pyridin-2-amine] | 33 nM | 48 nM
15 | CC(C)C(c1ccc(C(F)F)nc1)n1cc(-c2cc(-c3ccc(C4CC4)nc3)n3nc(N)nc3c2)cn1 (single isomer, unassigned) [II-54, 5-(6-Cyclopropylpyridin-3-yl)-7-(1-{1-[6-(difluoromethyl)pyridin-3-yl]-2-methylpropyl}-1H-pyrazol-4-yl)[1,2,4]triazolo[1,5-a]pyridin-2-amine] | 4 nM | 8.9 nM
16 | CCC(c1ccc(C(F)(F)F)nc1)n1cc(-c2cc(-c3ccc(C4CC4)nc3)n3nc(N)nc3c2)cn1 (single isomer, unassigned) [II-56, 5-(6-Cyclopropylpyridin-3-yl)-7-(1-{1-[6-(trifluoromethyl)pyridin-3-yl]propyl}-1H-pyrazol-4-yl)[1,2,4]triazolo[1,5-a]pyridin-2-amine] | 37 nM | 56 nM
17 | CCC(c1ccc(C(F)(F)F)nc1)n1cc(-c2cc(-c3ccc(C4CC4)nc3)n3nc(N)nc3c2)cn1 (single isomer, unassigned) [II-57, 5-(6-Cyclopropylpyridin-3-yl)-7-(1-{1-[6-(trifluoromethyl)pyridin-3-yl]propyl}-1H-pyrazol-4-yl)[1,2,4]triazolo[1,5-a]pyridin-2-amine] | 18 nM | 14 nM
18 | CC(C)C(c1ccc(C(F)(F)F)nc1)n1cc(-c2cc(-c3ccc(C4CC4)nc3)n3nc(N)nc3c2)cn1 (single isomer, unassigned) [II-59, 5-(6-Cyclopropylpyridin-3-yl)-7-(1-{2-methyl-1-[6-(trifluoromethyl)pyridin-3-yl]propyl}-1H-pyrazol-4-yl)[1,2,4]triazolo[1,5-a]pyridin-2-amine] | 92 nM | 190 nM
